Measurements published in patent publication US8058307B2, “Alcanoic acid amides substituted by saturated O-heterocycles” (Novartis AG, priority 2005, dated 2011).

Target: T1, renin (Homo sapiens, UniProt P00797)
T1 construct: This test measures the formation of angiotensin I in human plasma; from tissue; host or cells: human plasma
T1 sequence (P00797 67-406): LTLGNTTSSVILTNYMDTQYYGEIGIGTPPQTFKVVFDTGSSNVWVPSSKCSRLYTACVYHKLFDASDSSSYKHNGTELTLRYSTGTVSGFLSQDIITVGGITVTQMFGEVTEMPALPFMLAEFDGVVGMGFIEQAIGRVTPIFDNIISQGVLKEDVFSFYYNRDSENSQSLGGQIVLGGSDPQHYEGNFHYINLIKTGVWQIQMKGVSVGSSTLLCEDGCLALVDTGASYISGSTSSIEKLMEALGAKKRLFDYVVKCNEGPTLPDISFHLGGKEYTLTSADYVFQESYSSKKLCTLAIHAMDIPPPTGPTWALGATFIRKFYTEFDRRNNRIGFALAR
Experiment: in vitro test of Nussberger et al.: formation of angiotensin I in human plasma, radio-immunoassay
Assay type: biochemical
Settings: concentration which reduces the formation of angiotensin I in human plasma by 50%
Description: The effect of renin inhibitors is detected inter alia experimentally by means of in vitro tests where the reduction in the formation of angiotensin I is measured in various systems (human plasma, purified human renin together with synthetic or natural renin substrate). The following in vitro test of Nussberger et al. (1987) J. Cardiovascular Pharmacol., Vol. 9, pp. 39-44, is used inter alia. This test measures the formation of angiotensin I in human plasma. The amount of angiotensin I formed is determined in a subsequent radio-immunoassay. The effect of inhibitors on the formation of angiotensin I is tested in this system by adding various concentrations of these substances. The IC50 is defined as the concentration of the particular inhibitor which reduces the formation of angiotensin I by 50%.

IC50: 2.6 nM
SMILES: COCCCOc1cc(C[C@@H](C[C@H](N)[C@@H](O)C[C@H](C(=O)NC[C@H]2CCCO2)C(C)C)C(C)C)ccc1OC [Example 1, 5-Amino-4-hydroxy-2-isopropyl-7-[4-methoxy-3-(3-methoxypropoxy)benzyl]-8-methyl-N-(tetrahydrofuran-2(R)-ylmethyl)nonamide]
